Data reported in ChEMBL document CHEMBL1201862, “PubChem BioAssay data set” (2004).
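Interpolation was linear, between the two tested concentrations surrounding the appropriate level; five concentrations were tested over 48 hours in 96-well plates. Here, GI50 denotes the concentration required for 50% inhibition of growth.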 Calls of active or inactive are those of the source. Cut-off read from the data, not from the text of the source: active = GI50 up to about 1.1 µM and inactive = higher.

Legend:
Assay in all cases: inhibition of tumour cell growth, NCI panel, 48 h
786-0 = tested on: 786-0
A549 = tested on: A549
ACHN = tested on: ACHN
DMS-114 = tested on: DMS-114
EKVX = tested on: EKVX
HCT-15 = tested on: HCT-15
HL-60 = tested on: HL-60
IGROV-1 = tested on: IGROV-1
KM-20L2 = tested on: KM-20L2
M14 = tested on: M14
M19-MEL = tested on: M19-MEL
OVCAR-3 = tested on: OVCAR-3
SF-539 = tested on: SF-539
SK-MEL-28 = tested on: SK-MEL-28
SK-MEL-5 = tested on: SK-MEL-5
SK-OV-3 = tested on: SK-OV-3
SR = tested on: SR
U-251 = tested on: U-251
XF498 = tested on: XF498
BT-549 = tested on: BT-549

SMILES	GI50 (786-0)	GI50 (A549)	GI50 (ACHN)	GI50 (DMS-114)	GI50 (EKVX)	GI50 (HCT-15)	GI50 (HL-60)	GI50 (IGROV-1)	GI50 (KM-20L2)	GI50 (M14)	GI50 (M19-MEL)	GI50 (OVCAR-3)	GI50 (SF-539)	GI50 (SK-MEL-28)	GI50 (SK-MEL-5)	GI50 (SK-OV-3)	GI50 (SR)	GI50 (U-251)	GI50 (XF498)	GI50 (BT-549)
O=C(C#Cc1ccccc1)N1c2ccccc2CC1c1c[nH]c2ccccc12 (configuration not stated)	16.2 µM (inactive)	18.6 µM (inactive)	19.7 µM (inactive)	12.7 µM (inactive)	15.4 µM (inactive)	11.5 µM	14.7 µM (inactive)	3.73 µM (inactive)	21.9 µM (inactive)	15 µM (inactive)	16.1 µM (inactive)	14.6 µM (inactive)	13 µM (inactive)	14.9 µM (inactive)	14.4 µM (inactive)	20.4 µM (inactive)	12.3 µM (inactive)	17.5 µM (inactive)		
C1CSC(=[N+]2CC[N+](=C3SCCS3)CC2)S1	> 100 µM (inactive)	> 100 µM (inactive)	> 100 µM (inactive)	> 100 µM (inactive)	> 100 µM (inactive)	> 100 µM	> 100 µM (inactive)	> 100 µM (inactive)	> 100 µM (inactive)	> 100 µM (inactive)	> 100 µM (inactive)	> 100 µM (inactive)	> 100 µM (inactive)	> 100 µM (inactive)	> 100 µM (inactive)	> 100 µM (inactive)	83.8 µM (inactive)	> 100 µM (inactive)		
Cc1ccc(S(=O)(=O)O/N=C2\CCC\C2=C/c2ccccc2)cc1	25.4 µM (inactive)	29.4 µM (inactive)	11.1 µM (inactive)		19.6 µM (inactive)	22.9 µM	6.82 µM (inactive)	26.2 µM (inactive)	22.1 µM (inactive)	21.3 µM (inactive)	20.1 µM (inactive)	18.5 µM (inactive)	19.9 µM (inactive)	11.1 µM (inactive)	14.8 µM (inactive)	63.4 µM (inactive)	16.4 µM (inactive)	31.6 µM (inactive)	18.5 µM (inactive)	
CN(C)C(=S)/N=c1\ss/c(=N\C(=S)N(C)C)n1-c1cccc(Cl)c1	> 100 µM (inactive)	> 100 µM (inactive)	> 100 µM (inactive)	> 100 µM (inactive)	> 100 µM (inactive)	> 100 µM	> 100 µM (inactive)	> 100 µM (inactive)	> 100 µM (inactive)	> 100 µM (inactive)		> 100 µM (inactive)	> 100 µM (inactive)	> 100 µM (inactive)	> 100 µM (inactive)	> 10 µM (inactive)	> 100 µM (inactive)	> 100 µM (inactive)		
CCC1(CN(C)C)CC/C(=C\c2ccc(OC)cc2)C1=O (configuration not stated)	> 100 µM (inactive)	> 100 µM (inactive)	> 100 µM (inactive)	54.1 µM (inactive)	> 100 µM (inactive)	23.5 µM		> 100 µM (inactive)	> 100 µM (inactive)	> 100 µM (inactive)	> 100 µM (inactive)	> 100 µM (inactive)	> 100 µM (inactive)	> 100 µM (inactive)	58.6 µM (inactive)			> 100 µM (inactive)		
CC1=CC2C(C=C1)S(=O)(=O)N1CC21c1ccccc1 (configuration not stated)	> 100 µM (inactive)	> 100 µM (inactive)	> 100 µM (inactive)	21.4 µM (inactive)		> 100 µM	> 100 µM (inactive)	> 100 µM (inactive)	> 100 µM (inactive)	> 100 µM (inactive)	> 100 µM (inactive)	> 100 µM (inactive)	> 100 µM (inactive)	> 100 µM (inactive)	> 100 µM (inactive)	> 100 µM (inactive)	90.8 µM (inactive)	> 100 µM (inactive)		
COc1ccccc1NC(=O)C1=C(C)NC(C)=C(C(=O)Nc2ccccc2OC)C1c1cccc2c1OCO2	> 100 µM (inactive)	62.7 µM (inactive)	58.9 µM (inactive)	77.3 µM (inactive)	> 100 µM (inactive)	> 100 µM	41.2 µM (inactive)	> 100 µM (inactive)	> 100 µM (inactive)	> 100 µM (inactive)	> 100 µM (inactive)	> 100 µM (inactive)	21.4 µM (inactive)	> 100 µM (inactive)	46 µM (inactive)	> 100 µM (inactive)	30.5 µM (inactive)	> 100 µM (inactive)		
C/N=C(\S)N/N=C/C(C)=N/N/C(S)=N/C	> 100 µM (inactive)	> 100 µM (inactive)	> 100 µM (inactive)	0.0414 µM (active)	> 100 µM (inactive)	> 100 µM			0.631 µM (active)	> 100 µM (inactive)	> 100 µM (inactive)	> 100 µM (inactive)	> 100 µM (inactive)	> 100 µM (inactive)	> 100 µM (inactive)	> 100 µM (inactive)		> 100 µM (inactive)		
[O-][n+]1ccc(NO)c2ccccc21	2.05 µM (inactive)	1.6 µM (inactive)	0.796 µM (active)		2.21 µM (inactive)	1.75 µM	0.923 µM (active)	1.65 µM (inactive)		1.93 µM (inactive)		2.3 µM (inactive)	0.679 µM (active)	1.3 µM (inactive)	1.25 µM (inactive)	0.518 µM (active)	0.106 µM (active)	0.658 µM (active)		0.689 µM (active)
COC(=O)C(/C(=N/N)C(=O)Nc1ccc(C)c(C)c1)c1nc2ccc(Cl)cc2nc1O (configuration not stated)	> 100 µM (inactive)	> 100 µM (inactive)	40.3 µM (inactive)		74.5 µM (inactive)	> 100 µM	> 100 µM (inactive)	49.3 µM (inactive)		> 100 µM (inactive)		> 100 µM (inactive)	> 100 µM (inactive)	> 100 µM (inactive)	> 100 µM (inactive)	> 100 µM (inactive)	> 100 µM (inactive)	> 100 µM (inactive)		> 100 µM (inactive)
O=c1[nH]c(=O)n(C2CC(O)C(CO)O2)cc1C#Cc1c(F)c(F)c(F)c(F)c1F (configuration not stated)	> 100 µM (inactive)	> 100 µM (inactive)	> 100 µM (inactive)	> 100 µM (inactive)	> 100 µM (inactive)	> 100 µM			> 100 µM (inactive)	> 100 µM (inactive)	> 100 µM (inactive)	> 100 µM (inactive)	> 100 µM (inactive)	> 100 µM (inactive)	> 100 µM (inactive)	> 100 µM (inactive)	> 100 µM (inactive)	> 100 µM (inactive)		
CN1CCN(CCCNN)CC1	> 100 µM (inactive)	> 100 µM (inactive)	> 100 µM (inactive)		> 100 µM (inactive)	> 100 µM	7.33 µM (inactive)	> 100 µM (inactive)		> 100 µM (inactive)		> 100 µM (inactive)	> 100 µM (inactive)	> 100 µM (inactive)	> 100 µM (inactive)	> 100 µM (inactive)	0.0327 µM (active)	> 100 µM (inactive)		> 100 µM (inactive)
COC(=O)c1cc2c(n1S(=O)(=O)c1ccc(C)cc1)C(=O)C(=O)c1[nH]cc(C(=O)OCc3ccccc3)c1-2	0.23 µM (active)	0.183 µM (active)	0.233 µM (active)		0.279 µM (active)	0.0673 µM	0.0289 µM (active)	0.197 µM (active)		0.0621 µM (active)		< 0.0141 µM (active)	0.136 µM (active)	0.107 µM (active)	0.0237 µM (active)	0.871 µM (active)	0.0906 µM (active)	0.172 µM (active)		0.183 µM (active)
O=C1CSC(c2ccc(Cl)cc2)N1c1ccc(-c2ccc(-n3c(-c4ccccc4)nc4ccccc4c3=O)cc2)cc1 (configuration not stated)	27.4 µM (inactive)	37.5 µM (inactive)	58.6 µM (inactive)		56.9 µM (inactive)	33.2 µM	> 100 µM (inactive)	19 µM (inactive)		43.6 µM (inactive)		> 100 µM (inactive)	24.1 µM (inactive)	41.1 µM (inactive)	24.2 µM (inactive)	31.1 µM (inactive)	28.2 µM (inactive)	21.8 µM (inactive)		19 µM (inactive)
O/N=C1\C(=C\c2ccc3c(c2)OCCO3)CCCC1C(NO)c1ccc2c(c1)OCCO2 (configuration not stated)	32.1 µM (inactive)	25.2 µM (inactive)	34.5 µM (inactive)	20.1 µM (inactive)	25.2 µM (inactive)	22.5 µM	14.7 µM (inactive)	36.1 µM (inactive)	19 µM (inactive)	17.7 µM (inactive)	24.9 µM (inactive)	18.3 µM (inactive)	13.4 µM (inactive)	18.5 µM (inactive)	16.4 µM (inactive)	49.9 µM (inactive)	14.3 µM (inactive)	19.3 µM (inactive)		
COC(=O)C1=C(C(=O)OC)C(OO)(c2ccccc2)OC1=O (configuration not stated)	36.5 µM (inactive)	> 100 µM (inactive)	> 100 µM (inactive)		> 100 µM (inactive)	40.6 µM	> 100 µM (inactive)	35 µM (inactive)		> 100 µM (inactive)		> 100 µM (inactive)	33.3 µM (inactive)	> 100 µM (inactive)	50.2 µM (inactive)	> 100 µM (inactive)	38.5 µM (inactive)	37.4 µM (inactive)		> 100 µM (inactive)
Cn1c(-c2cccs2)cc(-c2ccccc2)c1-c1cccs1	35.4 µM (inactive)	12.3 µM (inactive)	39.9 µM (inactive)		22.7 µM (inactive)	> 100 µM	68.7 µM (inactive)	39.4 µM (inactive)		56.6 µM (inactive)		20.4 µM (inactive)	43.8 µM (inactive)	> 100 µM (inactive)	18.6 µM (inactive)	36.1 µM (inactive)	18.2 µM (inactive)	47.8 µM (inactive)		> 100 µM (inactive)
